Consider two molecules from patent US6706663B2, “Herbicidal 3-heterocyclic substituted benzisothiazole and benzisoxazole compounds” (Wyeth, priority 2000, dated 2004).

In this assay the test system is GLXMA (Soybean). The assay is described as follows: Postemergence herbicidal evaluation. It counts as in vivo, Glycine max, (L.) Merr. The note with it: for GLXMA herbicidal rating: postemergence. The procedure: In the tests, seedling plants are grown in jiffy flats for about two weeks. The test compounds are dispersed in 50/50 acetone/water mixtures containing 0.5% TWEEN® 20, a polyoxyethylene sorbitan monolaurate surfactant of Atlas Chemical Industries, in sufficient quantities to provide the equivalent of about 0.0040 kg to 1.000 kg per hectare of active compound when applied to the plants through a spray nozzle operating at 40 psi for a predetermined time. After spraying, the plants are placed on greenhouse benches and are cared for in accordance with conventional greenhouse procedures. From four to five weeks after treatment, the seedling plants are examined and rated according to the rating system set forth below. Where more than one test is involved for a given compound, the data are averaged.
Results of herbicide evaluation are expressed on a rating scale (0-9). The scale is based upon a visual observation of plant stand, vigor, malformation, size, chlorosis and overall plant appearance as compared with a control.

As to `Cc1ccsc1-c1nsc2ccc(-n3c(=O)cc(C(F)(F)F)n(C)c3=O)cc12` [Compound 4, 1-methyl-3-[3-(3-methyl-2-thienyl)-1,2-benzisothiazol-5-yl]-6-(trifluoromethyl)uracil], the “Postemergence herbicidal rating, GLXMA” value (rate 0.0320 kg/ha) is recorded as 9.0.
For the molecule `Cn1c(C(F)(F)F)cc(=O)n(-c2cc3c(C4OCCO4)nsc3cc2F)c1=O` [Compound 61, 3-[3-(1,3-dioxolan-2-yl)-6-fluoro-1,2-benzisothiazol-5-yl]-1-methyl-6-(trifluoromethyl)uracil], the GLXMA herbicidal rating was determined as 8.5 (rate 0.0320 kg/ha) and 8.5 (rate 0.0620 kg/ha).
